Results published in patent US12582617B2, “Methods for treating cancer” (RADIUS PHARMACEUTICALS, INC., priority 2015, dated 2026).
Where a name gives a salt, the structure may show the parent alone.

Assay: Phase 1 dose escalation study: safety, treatment related AEs
Type: in vivo
Experimental: The subjects were 40-75 years old with BMI of 18.0-30 kg/m^2. Subjects having evidence of clinically relevant pathology, increased risk of stroke or of history venous thromboembolic events, or use of concomitant medication less than 14 days prior to admission to clinical research center (paracetamol allowed up to 3 days prior) were excluded.
The subjects were treated with placebo or at least one dose p.o., q.d. after a light breakfast for 7 days at dose levels of 200 mg, 500 mg, 750 mg and 1000 mg, respectively.

CCNCCc1ccc(CN(CC)c2cc(OC)ccc2[C@@H]2CCc3cc(O)ccc3C2)cc1 [RAD1901, (6R)-6-(2-(N-(4-(2-(ethylamino)ethyl)benzyl)-N-ethylamino)-4-methoxyphenyl)-5,6,7,8-tetrahydronaphthalen-2-ol dihydrochloride]
1 (13) n(%): Abdominal discomfort (treatment related AE) (750 mg, Gr1) | Abdominal distension (treatment related AE) (750 mg, Gr1) | Abdominal pain (treatment related AE) (750 mg, Gr1) | Dizziness (treatment related AE) (750 mg, Gr1) | Flatulance (treatment related AE) (750 mg, Gr1) | Myalgia (treatment related AE) (750 mg, Gr1) | Oesophageal pain (treatment related AE) (750 mg, Gr1)
4 (50) n(%): Dyspepsia (treatment related AE) (750 mg, Gr1)
3 n(%): Abdominal discomfort (treatment related AE) (200 mg, Gr1) | Dyspepsia (treatment related AE) (200 mg, Gr1) | Headache (treatment related AE) (200 mg, Gr1) | Oesophageal pain (treatment related AE) (500 mg, Gr2)
0 n(%): Diarrhoea (treatment related AE) (200 mg, Gr1) | Dysphagia (treatment related AE) (200 mg, Gr1) | Oesophageal pain (treatment related AE) (200 mg, Gr1) | Abdominal discomfort (treatment related AE) (200 mg, Gr2) | Diarrhoea (treatment related AE) (200 mg, Gr2) | Dizziness (treatment related AE) (200 mg, Gr2) | Dyspepsia (treatment related AE) (200 mg, Gr2) | Dysphagia (treatment related AE) (200 mg, Gr2) | Flatulance (treatment related AE) (200 mg, Gr2) | Headache (treatment related AE) (200 mg, Gr2) | Hiccups (treatment related AE) (200 mg, Gr2) | Hot flush (treatment related AE) (200 mg, Gr2) | Nausea (treatment related AE) (200 mg, Gr2) | Odynophagia (treatment related AE) (200 mg, Gr2) | Salivary hypersecretion (treatment related AE) (200 mg, Gr2) | Sensation of a foreign body (treatment related AE) (200 mg, Gr2) | Vomiting (treatment related AE) (200 mg, Gr2) | Abdominal discomfort (treatment related AE) (200 mg, Gr3) | Abdominal distension (treatment related AE) (200 mg, Gr3) | Abdominal pain (treatment related AE) (200 mg, Gr3) | Diarrhoea (treatment related AE) (200 mg, Gr3) | Dizziness (treatment related AE) (200 mg, Gr3) | Dyspepsia (treatment related AE) (200 mg, Gr3) | Dysphagia (treatment related AE) (200 mg, Gr3) | Flatulance (treatment related AE) (200 mg, Gr3) | Headache (treatment related AE) (200 mg, Gr3) | Hiccups (treatment related AE) (200 mg, Gr3) | Hot flush (treatment related AE) (200 mg, Gr3) | Myalgia (treatment related AE) (200 mg, Gr3) | Nausea (treatment related AE) (200 mg, Gr3) | Odynophagia (treatment related AE) (200 mg, Gr3) | Oesophageal pain (treatment related AE) (200 mg, Gr3) | Salivary hypersecretion (treatment related AE) (200 mg, Gr3) | Sensation of a foreign body (treatment related AE) (200 mg, Gr3) | Vomiting (treatment related AE) (200 mg, Gr3) | Abdominal discomfort (treatment related AE) (500 mg, Gr1) | Myalgia (treatment related AE) (500 mg, Gr1) | Abdominal discomfort (treatment related AE) (500 mg, Gr2) | Abdominal distension (treatment related AE) (500 mg, Gr2) | Abdominal pain (treatment related AE) (500 mg, Gr2) | Diarrhoea (treatment related AE) (500 mg, Gr2) | Dizziness (treatment related AE) (500 mg, Gr2) | Flatulance (treatment related AE) (500 mg, Gr2) | Hiccups (treatment related AE) (500 mg, Gr2) | Hot flush (treatment related AE) (500 mg, Gr2) | Salivary hypersecretion (treatment related AE) (500 mg, Gr2) | Sensation of a foreign body (treatment related AE) (500 mg, Gr2) | Abdominal discomfort (treatment related AE) (500 mg, Gr3) | Abdominal distension (treatment related AE) (500 mg, Gr3) | Abdominal pain (treatment related AE) (500 mg, Gr3) | Diarrhoea (treatment related AE) (500 mg, Gr3) | Dizziness (treatment related AE) (500 mg, Gr3) | Dyspepsia (treatment related AE) (500 mg, Gr3) | Dysphagia (treatment related AE) (500 mg, Gr3) | Flatulance (treatment related AE) (500 mg, Gr3) | Headache (treatment related AE) (500 mg, Gr3) | Hiccups (treatment related AE) (500 mg, Gr3) | Hot flush (treatment related AE) (500 mg, Gr3) | Myalgia (treatment related AE) (500 mg, Gr3) | Nausea (treatment related AE) (500 mg, Gr3) | Odynophagia (treatment related AE) (500 mg, Gr3) | Oesophageal pain (treatment related AE) (500 mg, Gr3) | Salivary hypersecretion (treatment related AE) (500 mg, Gr3) | Sensation of a foreign body (treatment related AE) (500 mg, Gr3) | Diarrhoea (treatment related AE) (750 mg, Gr1) | Odynophagia (treatment related AE) (750 mg, Gr1) | Sensation of a foreign body (treatment related AE) (750 mg, Gr1) | Vomiting (treatment related AE) (750 mg, Gr1) | Abdominal distension (treatment related AE) (750 mg, Gr2) | Abdominal pain (treatment related AE) (750 mg, Gr2) | Diarrhoea (treatment related AE) (750 mg, Gr2) | Dizziness (treatment related AE) (750 mg, Gr2) | Dyspepsia (treatment related AE) (750 mg, Gr2) | Flatulance (treatment related AE) (750 mg, Gr2) | Headache (treatment related AE) (750 mg, Gr2) | Hiccups (treatment related AE) (750 mg, Gr2) | Hot flush (treatment related AE) (750 mg, Gr2) | Myalgia (treatment related AE) (750 mg, Gr2) | Odynophagia (treatment related AE) (750 mg, Gr2) | Oesophageal pain (treatment related AE) (750 mg, Gr2) | Salivary hypersecretion (treatment related AE) (750 mg, Gr2) | Sensation of a foreign body (treatment related AE) (750 mg, Gr2) | Abdominal discomfort (treatment related AE) (750 mg, Gr3)
3 (21) n(%): Abdominal pain (treatment related AE) (500 mg, Gr1) | Diarrhoea (treatment related AE) (500 mg, Gr1) | Nausea (treatment related AE) (500 mg, Gr1)
2 n(%): Abdominal pain (treatment related AE) (200 mg, Gr1) | Flatulance (treatment related AE) (200 mg, Gr1) | Hot flush (treatment related AE) (200 mg, Gr1) | Myalgia (treatment related AE) (200 mg, Gr1) | Odynophagia (treatment related AE) (200 mg, Gr1) | Salivary hypersecretion (treatment related AE) (200 mg, Gr1) | Sensation of a foreign body (treatment related AE) (200 mg, Gr1) | Vomiting (treatment related AE) (200 mg, Gr1) | Abdominal pain (treatment related AE) (200 mg, Gr2) | Oesophageal pain (treatment related AE) (200 mg, Gr2) | Dyspepsia (treatment related AE) (500 mg, Gr2) | Dysphagia (treatment related AE) (500 mg, Gr2) | Nausea (treatment related AE) (500 mg, Gr2) | Vomiting (treatment related AE) (750 mg, Gr2)
5 (36) n(%): Dyspepsia (treatment related AE) (500 mg, Gr1)
5 n(%): Nausea (treatment related AE) (200 mg, Gr1) | Vomiting (treatment related AE) (500 mg, Gr2)
6 (43) n(%): Hot flush (treatment related AE) (500 mg, Gr1)
4 (29) n(%): Hiccups (treatment related AE) (500 mg, Gr1)
3 (38) n(%): Dysphagia (treatment related AE) (750 mg, Gr1) | Headache (treatment related AE) (750 mg, Gr1)
1 (7) n(%): Abdominal distension (treatment related AE) (500 mg, Gr1) | Dysphagia (treatment related AE) (500 mg, Gr1) | Headache (treatment related AE) (500 mg, Gr1) | Odynophagia (treatment related AE) (500 mg, Gr1) | Oesophageal pain (treatment related AE) (500 mg, Gr1) | Sensation of a foreign body (treatment related AE) (500 mg, Gr1) | Vomiting (treatment related AE) (500 mg, Gr1)
2 (14) n(%): Dizziness (treatment related AE) (500 mg, Gr1) | Flatulance (treatment related AE) (500 mg, Gr1) | Salivary hypersecretion (treatment related AE) (500 mg, Gr1)
2 (25) n(%): Hiccups (treatment related AE) (750 mg, Gr1) | Hot flush (treatment related AE) (750 mg, Gr1) | Nausea (treatment related AE) (750 mg, Gr1) | Salivary hypersecretion (treatment related AE) (750 mg, Gr1)
1 n(%): Abdominal distension (treatment related AE) (200 mg, Gr1) | Dizziness (treatment related AE) (200 mg, Gr1) | Hiccups (treatment related AE) (200 mg, Gr1) | Abdominal distension (treatment related AE) (200 mg, Gr2) | Myalgia (treatment related AE) (200 mg, Gr2) | Headache (treatment related AE) (500 mg, Gr2) | Myalgia (treatment related AE) (500 mg, Gr2) | Odynophagia (treatment related AE) (500 mg, Gr2) | Vomiting (treatment related AE) (500 mg, Gr3) | Abdominal discomfort (treatment related AE) (750 mg, Gr2) | Dysphagia (treatment related AE) (750 mg, Gr2) | Nausea (treatment related AE) (750 mg, Gr2)
